Results on six compounds are retold here after US10730826B2, “Ketone inhibitors of lysine gingipain” (CORTEXYME, INC., priority 2016, dated 2020).

Where two headings read alike, the source gives them in different places.

Data set [1] deals with Cathepsin L (Homo sapiens (Human), UniProt P07711). Nature of the data set: Cathepsin L inhibition assay. Conditions: read-out: IC50 (nM) CatL. It counts as biochemical. The method, then:
(§1) The capacities of compounds of the present invention to inhibit the activity of cathepsins B, H, K, L, and S were measured in similar assays. Boc-Leu-Arg-Arg-AMC (20 μM) in sodium acetate buffer (50 mM, pH 5.5) containing DTT (1 mM) and EDTA (2 mM) was used for the Cathepsin B assay. L-Arg-AMC (20 μM) in sodium acetate buffer (50 mM, pH 5.5) containing DTT (1 mM) and EDTA (2 mM) was used for the Cathepsin H assay. Z-Phe-Arg-AMC (10 μM) in HEPES buffer (50 mM, pH 7.4) containing DTT (2.5 mM) and EDTA (1 mM) was used for the Cathepsin K assay. Z-Phe-Arg-AMC (20 μM) in sodium acetate buffer (50 mM, pH 5.5) containing DTT (1 mM) and EDTA (2 mM) was used for the Cathepsin L assay. Z-Leu-Arg-AMC (10 μM) in sodium acetate buffer (25 mM, pH 4.5) containing DTT (2.5 mM) and NaCl (50 mM) was used for the Cathepsin S assay. The capacities of the compounds to inhibit the activity of cathepsins F, V, and Z were also measured.
(§2) Further assays to measure the inhibitory activity of compounds of the present invention against Kgp and cathepsins B, H, K, L, and S were conducted as described in Example 66. The capacities of the compounds to inhibit the activity of cathepsins F, V, and Z were also measured.

Data set [2] addresses cathepsin Z (Homo sapiens (Human), UniProt Q9UBR2). The experiment in a line: Cathepsin Z inhibition assay. It counts as biochemical. Conditions: Table 4; read-out: IC50 (nM) CatZ. The protocol: as §1, §2
Data set [3] addresses Cathepsin B (Homo sapiens (Human), UniProt P07858). The experiment in a line: Cathepsin B inhibition assay. The data set is classed as biochemical. To be noted: read-out: IC50 (nM) CatB. The protocol:
as §1, §2

The target in data set [4] is cathepsin V (Homo sapiens (Human), UniProt O60911). Nature of the data set: Cathepsin V inhibition assay. The data set is classed as biochemical. To be noted: Table 4; read-out: IC50 (nM) CatV. The method, then:
as §1, §2

In data set [5] the target is cathepsin F (Homo sapiens (Human), UniProt Q9UBX1). Nature of the data set: Cathepsin F inhibition assay. It counts as biochemical. Conditions: Table 4; read-out: IC50 (nM) CatF. The method, then:
as §1, §2

Data set [6] addresses Cathepsin S (Homo sapiens (Human), UniProt P25774). Nature of the data set: Cathepsin S inhibition assay. It counts as biochemical. To be noted: read-out: IC50 (nM) CatS. The protocol: as §1, §2
Data set [7] concerns the target Cathepsin K (Homo sapiens (Human), UniProt P43235). The experiment in a line: Cathepsin K inhibition assay. It counts as biochemical. To be noted: read-out: IC50 (nM) CatK. The method, then:
as §1, §2

Data set [8] deals with Cathepsin H (Homo sapiens (Human), UniProt P09668). Nature of the data set: Cathepsin H inhibition assay. The data set is classed as biochemical. Conditions: read-out: IC50 (nM) CatH. The method, then: as §1, §2
The target in data set [9] is T1, Kgp (Porphyromonas gingivalis (Bacteroides gingivalis), UniProt Q51817). Nature of the data set: Biotin activity probe pull-down of Kgp from P. gingivalis lysate. It counts as binding. Conditions: streptavidin beads, Western blot with CAB102, FIG. 8. The protocol:
P. gingivalis W83 was lysed with B-Per buffer for 15 min at 4° C. […] 5 mg of streptavidin-beads were incubated with all samples for 1 hr at room temperature on an inverting platform. The beads were collected after 1 hr and heated at 100° C. for 5 min with 0.1% SDS to disrupt biotin-streptavidin binding. The resulting supernatants were analyzed by SDS-PAGE and Western blotting for specific detection of Kgp with CAB102 (FIG. 8).

In data set [10] the target is lysine gingipain (Kgp) (Porphyromonas gingivalis (Bacteroides gingivalis), UniProt P72194). The experiment in a line: biochemical. Conditions: IC50 (nM) Kgp, Table 4. It counts as biochemical. The method, then:
The specific assay conditions were as follows. Buffer: pH=7.5, 100 mM Tris-HCl, 75 mM NaCl, 2.5 mM CaCl2), 10 mM cysteine, 1% DMSO after all additions. Protein: 0.1 nM Kgp, isolated from culture of Porphyromonas gingivalis, as described by Pike et al. (J. Biol. Chem. 1994, 269(1), 406), and Potempa and Nguyen (Current Protocols in Protein Science. 2007, 21.20.1-21.20.27). Fluorogenic substrate: 10 μM Z-His-Glu-Lys-MCA. Time=90 minutes. Temperature=37° C.
as §2

The conditions of data set [11]: in vivo, po; cited from earlier work.
Data set [12] addresses T2, Kgp (Porphyromonas gingivalis (strain ATCC 33277 / DSM 20709 / CIP 103683 / JCM 12257 / NCTC 11834 / 2561), UniProt B2RLK2). Nature of the data set: Gingival tissue staining with activity probe. The arrangement: species or system human. To be noted: patient with periodontal disease, FIG. 5B. The method, then:
Slides of fresh frozen gingival tissue (5 micron thickness) were removed from a −80° C. freezer and thawed at RT for 10 min. […] Slides were then washed three times in PBS, 5 min each, then fixed in fresh 4% PFA for 15 min at RT, then washed again three times in PBS. Then slides were incubated with a 1× working Trueblack solution (Biotium) for 30 min at RT. Slides were then washed three times in PBS and mounted with anti-fade mounting media containing DAPI (FIG. 5B).

Data set [13] deals with T2, Kgp. The experiment in a line: Buccal cell staining with activity probe. The data set is classed as cell-based, human. To be noted: 1 μM probe, 1 hr, 37° C., FIG. 7. The protocol:
Cells were incubated for 1 hr at 37° C. and pelleted. Cells were resuspended in 20 μL of PBS and placed on poly-L-lysine coated slides, washed, and dried. Slides were mounted with antifade mounting media containing DAPI and visualized under a fluorescence microscope.

Data set [14] deals with Kgp in P. gingivalis W83 bacteria (Porphyromonas gingivalis (Bacteroides gingivalis), UniProt Q51817). Nature of the data set: Bacterial smear staining with gingipain activity probes. To be noted: 1 μM probe, 1 hr, 37° C.; no signal in Kgp knockout. It counts as cell-based. The protocol: Bacteria were then pelleted and resuspended in 20 μl of PBS, which was dropped onto a poly-L-lysine coated slide and kept in a dark box at room temperature for about 2 hrs in order for the droplet to dry. The slide was then washed 3 times in PBS. Slides were mounted with a mounting media containing DAPI stain for bacterial DNA and visualized under fluorescence microscopy.

The target of data set [15] is T1, Kgp. The experiment in a line: Activity probe labelling of Kgp in P. gingivalis-infected Jurkat cells (SDS-PAGE). The data set is classed as cell-based. An excerpt: The identity of this labeled protein in P. gingivalis-infected cells was confirmed to be Kgp by Western blot.

As usually defined, the IC50 is the concentration that gives 50% inhibition. Turning to `NCCCC[C@H](NC(=O)C1CCCC1)C(=O)COc1c(F)c(F)cc(F)c1F` (stereo in doubt) [Compound 73, N-[7-amino-2-oxo-1-(2,3,5,6-tetrafluorophenoxy)heptan-3-yl]cyclopentanecarboxamide, reference compound], the IC50 in data set [1] (Table 3) was 700 nM; in [1] (Table 4) it was 700 nM; in data set [2], over 10000 nM; in [3] (Table 3) it was 485 nM; in data set [3] (Table 4) it was 485 nM; in data set [4] it was 5720 nM. For the same compound, the IC50 in data set [5] is 500 nM; in data set [6] (Table 3), 9980 nM; in data set [6] (Table 4), over 10000 nM; in data set [7] (Table 3), 20 nM; in [7] (Table 4), 20 nM; in data set [8] (Table 3), 110 nM. The IC50 in [8] (Table 4) worked out at 110 nM.

Take `NCCCCC(NC(=O)c1cccc(-n2cc(CNC(=O)CCCC[C@@H]3SC[C@@H]4NC(=O)N[C@@H]43)nn2)c1)C(=O)COc1c(F)cccc1F` (stereo partly shown) [Compound 51a]: in [9], the “amount of P. gingivalis from which Kgp was pulled down and detected” value is “at least 10^6 CFU”.

For the compound `COC(C)(C)C(=O)NC(CCCCN)C(=O)COC(C(F)(F)F)C(F)(F)F` (stereo not shown) [Compound 69a], the IC50 was over 10000 nM in data set [1] (Table 4); 0.21 nM in data set [10]; over 10000 nM in data set [2]; over 10000 nM in data set [3] (Table 4); over 10000 nM in [5]; over 10000 nM in data set [6] (Table 4). In addition, the IC50 in [7] (Table 4) and in data set [8] (Table 4) was over 10000 nM throughout.

Turning to `CN(NC(=O)CC[C@H](NC(=O)OCc1ccccc1)C(=O)N[C@@H](CCCCN)C(=O)C(=O)NCc1ccccc1)c1ccccc1` [Kyt-36], the half-life entry in data set [11] is “increases the half-life”.

On to `CC1=CC(C)=[N+]2C1=Cc1ccc(CCC(=O)NCc3cn(-c4cccc(C(=O)NC(CCCCN)C(=O)COc5c(F)cccc5F)c4)nn3)n1[B-]2(F)F` (stereo not shown) [Compound 15a], for which the “fluorescence signal in gingival tissue section” value in [12] is recorded as “yields a fluorescence signal”. Further, the “staining of buccal cells” value in data set [13] is given as “pronounced, punctate staining”. In addition, in data set [14], the “fluorescence of W83 bacteria after exposure to probe” value was “fluorescent”. For the same compound, the “binding of probe to Kgp” value in data set [15] (purified Kgp and infected Jurkat cells, FIG. 6A) is given as “irreversibly binds to purified Kgp”.

On to `C[N+]1=C(/C=C/C=C/C=C2\N(CCCCCC(=O)NCc3cn(-c4cccc(C(=O)N[C@@H](CCCCN)C(=O)COc5c(F)cccc5F)c4)nn3)c3ccc(S(=O)(=O)O)cc3C2(C)C)C(C)(C)c2cc(S(=O)(=O)O)ccc21` [Compound 70], for which, in data set [15] (infected Jurkat cells, preincubation before probe 15a), the “blocking of probe 15a binding to Kgp by preincubation” value is recorded as “blocked the binding of the probe 15a to Kgp”.
